Here are results for five compounds from patent EP0087750B2, “Amino acid preparations containing glutaminic residues” (Kabi Pharmacia GmbH, priority 1982, dated 1994).

In general, solubility refers to how much of the substance goes into solution per volume. High values mean a readily soluble substance, low ones a poorly soluble substance.

Values after ≈ are worked out from the molar mass of the structure shown. Residues, ends and D or L forms follow the SMILES beside them.

The nature of one series: physchem. Type of series: physicochemical. The settings on record: water. The text has this:
(§1) Es wurde nun erkannt, daß das Glutamin als an der α-Aminogruppe durch α-Aminoacylreste substituiertes Derivat, d. h. in Form der Tri- oder Dipeptide des Glutamins dem Organismus, insbesondere durch Infusionslösungen, zugeführt werden kann, ohne Gefahr der Bildung des toxischen Cyclisierungsprodukts. Diese Di- und Tripeptide des Glutamins mit anderen Aminosäuren, wie Glycin, Alanin, Leucin, Isoleucin oder Valin, sind sehr leicht wasserlöslich, so daß sie gegebenenfalls in relativ hoher Konzentration in den Infusionslösungen angewendet werden können, wobei gleichzeitig dem Organismus auch andere Aminosäuren zugeführt werden, ohne daß dadurch osmotische Problem auftreten. Die Löslichkeit beispielsweise des Gly-Ala-Gln beträgt 680 g/L H₂O, während die freien Aminosäuren eine geringere Löslichkeit besitzen: […]: 225 g/L H₂O; Alanin: 158 g/L H₂O und Glutamin: […] H₂O.

The nature of the next series: Solubility in water. It counts as physicochemical.
Description: as §1

The test system of series [1] is Hydrolasen in den Geweben des Organismus. The conditions noted are these: in vivo, cited from earlier work.

Regarding `C[C@H](N)C(=O)O` [Alanin], the solubility in the series “physchem” is 158 mg/mL (≈ 1770 mM).
Take `NC(=O)CC[C@H](N)C(=O)O` [Glutamin]: in “physchem”, the solubility was 325 mg/mL (≈ 2220 mM).
In “Solubility in water”, `C[C@H](NC(=O)CN)C(=O)N[C@@H](CCC(N)=O)C(=O)O` [Gly-Ala-Gln, Glycyl-L-alanyl-L-glutamin] (H-Gly-Ala-Gln-OH) gave a Löslichkeit of 680 g/L H₂O.
Glycerin gave a Löslichkeit in “physchem” of 225 g/L H₂O.
For the compound Glycyl-leucin, the “Elimination aus dem Plasma” value in series [1] (iv) is “schnell aus dem Plasma eliminiert”. In addition, the “Spaltung durch Hydrolasen in den Geweben” value in series [1] is “gut gespalten”.
